Tested on: UGT2B
Assay: in vitro
Experimental: In the following experiment, 27 different kinds of CHEs and 10 different excipients were used as UGT2B inhibitor in this invention. These CHEs are pure compounds available commercially, and were purchased from Sigma Chemical Co., Nacalai Tesque (Kyoto, Japan) and Indofine Chemical Co., Inc. (Somerville, N.J.). These UGT2B inhibitors are dissolved in alcohol at the concentration of 1, 10, 100 μM for the following experiment.
These excipients are dissolved in water and make up to 0.5%, 5%, 50% (wt %, w/v) for the following experiment. (Note: BRIJ is a registered trademark of ICI Americas, Inc.; Pluronic is a registered trademark of BASF Corporation.)
The Sprague-Dawley male rats, weighted 300-400 g are used as model animals in these experiments. The microsome is prepared as follows: • i. Sacrifice a rat after 12-16 hours fasting, take its liver; wipe dry the liver and weigh it. • ii. Add 300% (by volume) of cold 0.3M sucrose solution, and homogenize the liver. • iii. Centrifuge the homogenized liver suspension at 9000×g speed (KS-800, Kubota, made in Japan) for 10 min at 4° C. Collect the supernatant. • iv. Centrifuge the supernatant at 105,000×g speed (L8-60M, Beckman, made in USA) for 60 min at 4° C. • v. Remove the supernatant, add 0.3M sucrose (of the same volume) and repeat the homogenization. The homogenized liver suspension is the microsome. Store the microsome at −70° C.
Thaw the microsome before use. Add 5 μl/ml BRIJ®35 (Fisher et al. 2000, Drug Metabolism & Disposition. 28(5):560-6) into microsome by a ratio of microsome:BRIJ®35=8:1 (v/v).
The protein amount is determined as follows: • i. Take 0.1 ml microsome and dilute to 5 ml 0.85% NaCl (50-fold dilution, v/v). Take 0.2 ml of the diluted microsome and place it in a capped test tube (triple experiments). Separately, replacing microsome with 0.2 ml NaCl as the control. • ii. Add 2.2 ml Biuret regent (SIGMA, 690-A) into each test tube, mix well and store at room temperature for 10 min. • iii. Add 0.1 ml folin regent (SIGMA, 690-A), mix immediately, and store at room temperature for 30 min. Measure the absorbance at 550 nm wave length within the 30 min. Measure the concentration of protein in microsome based on the standard curve generated by various bovine albumin concentration and absorbance. 4. The Measurement of the Inhibition of UGT2B Activity in vitro • i. […] Mix solution (A) and 17 μl solution (B) thoroughly, place in a 37° C. water bath and shake at 125 rpm for 60 min. • iii. Add 1 ml ACN to interrupt the reaction. • iv. Centrifuge at 130,000×g speed at 4° C. for 5 min, and • v. […] 5.
Set the Ultra-violet detector's (SPD-10A, Shimadzu, Kyoto, made in Japan) wave length to 210 nm.
Those CHEs are commercially available pure compounds, acquired from Sigma Chemical Co., Nacalai Tesque (Kyoto, Japan) and […] (Somerville, N.J.). Their categories, names, sources, and chemical compositions are described in Table 5.

[1] = male, Sprague-Dawley, rat, % Inhibition (Mean ± SD)
[2] = male, Sprague-Dawley, rat, 60 min, 8.5 μM
[3] = male, Sprague-Dawley, rat, 60 min, 85 μM
[4] = male, Sprague-Dawley, rat, 60 min, 850 μM
[5] = male, Sprague-Dawley, rat, inhibition rate on the metabolism of nalbuphine in microsome
[6] = Table 2, inhibitor 8.5 μM, metabolism of nalbuphine in rat liver microsome
[7] = Table 2, inhibitor 85 μM, metabolism of nalbuphine in rat liver microsome
[8] = Table 2, inhibitor 850 μM, metabolism of nalbuphine in rat liver microsome
[9] = Table 6, enhancer 8.5 μM, negative = enhancement
[10] = Table 6, enhancer 85 μM, negative = enhancement
[11] = Table 6, enhancer 850 μM, negative = enhancement

Row | inhibition at 60 min, 8.5 μM [1] [%] | inhibition at 60 min, 85 μM [1] [%] | inhibition at 60 min, 850 μM [1] [%] | inhibition at 60 min, 8.5 µM [1] [%] | inhibition at 60 min, 85 µM [1] [%] | inhibition at 60 min, 850 µM [1] [%] | SMILES | other results
1 | -68.4 ± 7.34 | -54.8 ± 9.38 | -65.3 ± 47 | – | – | – | Oc1cc(O)c2c(c1)OC(c1ccc(O)c(O)c1)[C@@H](O)C2 (single isomer, unassigned; (+)) [(+)-catechin, (+)-Catechin] | –
2 | – | – | – | – | – | – | Oc1cc(O)c2c(c1)OC(c1ccc(O)c(O)c1)[C@@H](O)C2 (single isomer, unassigned; (+)) [(+)-epicatechin, (+)-Epicatechin] | % Inhibition (Mean ± SD) [2]: −32.553 ± 1.578%; % Inhibition (Mean ± SD) [3]: −47.075 ± 0.533%; % Inhibition (Mean ± SD) [4]: −8.118 ± 1.256%
3 | – | – | – | 18.3 ± 0.793 | 45.3 ± 7.84 | 44.2 ± 2.28 | C=C(C)C1CC=C(C)CC1 (single isomer, unassigned; (+)) [(+)-limonene, (+)-Limonene] | inhibition at 60 min [5]: ≥ 30%
4 | – | – | – | – | – | – | Oc1cc(O)c2c(c1)OC(c1ccc(O)c(O)c1)[C@@H](O)C2 (single isomer, unassigned; (-)) [(−)-epicatechin, (−)-Epicatechin] | % Inhibition (Mean ± SD) [2]: −28.68 ± 17.634%; % Inhibition (Mean ± SD) [3]: −23.53 ± 27.304%; % Inhibition (Mean ± SD) [4]: −48.35 ± 39.354%
5 | -26.3 ± 27.3 | 17.3 ± 5.84 | 2.39 ± 22.5 | -26.3 ± 27.3 | 17.3 ± 5.84 | 2.39 ± 22.5 | CC(=O)OCCCc1ccccc1 [3-phenylpropyl acetate, 3-Phenylpropyl Acetate] | –
6 | -26.7 ± 13.1 | 54 ± 15.8 | -16.1 ± 17.9 | -26.7 ± 13.1 | 54 ± 15.8 | -16.1 ± 17.9 | O=c1cc(-c2ccc(O)cc2)oc2cc(O)cc(O)c12 [apigenin, Apigenin] | –
7 | -99.6 ± 12.8 | -125 ± 8.62 | – | – | – | – | O=c1cc(-c2ccccc2)oc2cc(O)c(O)c(O)c12 [baicalein] | inhibition at 60 min, 212.5 μM [1]: -146 ± 8.47%
8 | – | – | – | – | – | – | O=C(O)[C@H]1O[C@@H](Oc2cc3oc(-c4ccccc4)cc(=O)c3c(O)c2O)[C@H](O)[C@@H](O)[C@@H]1O [baicalin] | % Inhibition (Mean ± SD) [6]: 36.298 ± 9.403%; % Inhibition (Mean ± SD) [7]: 46.253 ± 22.923%; % Inhibition (Mean ± SD) [8]: 44.262 ± 2.879%
9 | – | – | – | 111 ± 21.8 | 105 ± 21.8 | 105 ± 19.3 | COc1c(O)cc2oc(Oc3ccc(O)cc3)cc(=O)c2c1O [capillarisin, Capillarisin] | inhibition at 60 min [5]: 111%
10 | -8.41 ± 18.6 | -12.1 ± 6.68 | 58.9 ± 8.56 | -8.41 ± 18.6 | -12.1 ± 6.68 | 58.9 ± 8.56 | CC12CCC(CC1)C(C)(C)O2 [cineole, Cineole] | –
11 | -128 ± 20.8 | -138 ± 4.62 | – | – | – | – | O=c1c(-c2ccc(O)cc2)coc2cc(O)ccc12 [daidzein, Daidzein] | inhibition at 60 min, 425 μM [1]: -138 ± 2.31%
12 | – | – | – | – | – | – | O=c1c(-c2ccc(O)cc2)coc2cc(O[C@@H]3O[C@H](CO)[C@@H](O)[C@H](O)[C@H]3O)ccc12 [daidzin, Daidzin] | inhibition at 60 min, 8.5 μM (male, Sprague-Dawley, rat): -29.5 ± 22%; inhibition at 60 min, 85 μM (male, Sprague-Dawley, rat): -41.5 ± 17%; inhibition at 60 min, 850 μM (male, Sprague-Dawley, rat): -61 ± 21.1%
13 | – | – | – | – | – | – | CC(C)[C@@H](C)/C=C/[C@@H](C)[C@H]1CC[C@H]2C3=CC=C4C[C@@H](O)CC[C@]4(C)[C@H]3CC[C@]12C [ergosterol, Ergosterol] | inhibition at 60 min, 8.5 μM (male, Sprague-Dawley, rat, liver microsomes, probe nalbuphine, % Inhibition (Mean ± SD), Table 6, enhancer 8.5 μM, negative = enhancement): -12.5 ± 28.9%; inhibition at 60 min, 85 μM (male, Sprague-Dawley, rat, liver microsomes, probe nalbuphine, % Inhibition (Mean ± SD), Table 6, enhancer 85 μM, negative = enhancement): -28.3 ± 20.3%; inhibition at 60 min, 850 μM (male, Sprague-Dawley, rat, liver microsomes, probe nalbuphine, % Inhibition (Mean ± SD), Table 6, enhancer 850 μM, negative = enhancement): -34.6 ± 19.9%
14 | -1.06 ± 3.71 | -17.1 ± 2.3 | 14.1 ± 2.88 | -1.06 ± 3.71 | -17.1 ± 2.3 | 14.1 ± 2.88 | O=C1CC(c2ccc(O)c(O)c2)Oc2cc(O)cc(O)c21 (centres unmarked) [eriodictyol, Eriodictyol] | inhibition at 60 min [5]: ≥ 30%
15 | -27.8 ± 14.7 | -12.1 ± 5.71 | 6.33 ± 1.48 | -27.8 ± 14.7 | -12.1 ± 5.71 | 6.33 ± 1.48 | CCCCCCCCCCCCCC(=O)OCC [ethyl myristate, Ethyl Myristate] | –
16 | -86.5 ± 3.49 | -31.5 ± 4.78 | -24.7 ± 4.42 | – | – | – | COc1ccc(-c2coc3cc(O)ccc3c2=O)cc1 [formononetin, Formononetin] | –
17 | – | – | – | 15.8 ± 4.42 | 8.05 ± 3.02 | 12.2 ± 4.08 | O=C(O)c1cc(O)c(O)c(O)c1 [gallic acid, Gallic Acid] | –
18 | – | – | – | – | – | – | O=c1c(-c2ccc(O)cc2)coc2cc(O)cc(O)c12 [genistein, Genistein] | inhibition at 60 min, 8.5 µM (male, Sprague-Dawley, rat): 15.6 ± 6.05%; inhibition at 60 min, 8.5 μM (male, Sprague-Dawley, rat): 15.6 ± 6.05%; inhibition at 60 min, 85 µM (male, Sprague-Dawley, rat): 5.73 ± 6.41%; inhibition at 60 min, 85 μM (male, Sprague-Dawley, rat): 5.73 ± 6.41%; inhibition at 60 min, 850 µM (male, Sprague-Dawley, rat): -9.2 ± 5.18%; inhibition at 60 min, 850 μM (male, Sprague-Dawley, rat): -9.2 ± 5.18%
19 | -27 ± 4.51 | -77.7 ± 20.7 | -43.2 ± 18.8 | – | – | – | COc1cc(O)c2c(=O)cc(-c3ccc(O)cc3)oc2c1 [genkwanin] | –
20 | 9.93 ± 6.66 | -20.3 ± 3.67 | -5.65 ± 6.62 | 9.93 ± 6.66 | -20.3 ± 3.67 | -5.65 ± 6.62 | CC1(C)[C@@H](O[C@H]2O[C@H](C(=O)O)[C@@H](O)[C@H](O)[C@H]2O[C@@H]2O[C@H](C(=O)O)[C@@H](O)[C@H](O)[C@H]2O)CC[C@]2(C)[C@H]3C(=O)C=C4[C@@H]5C[C@@](C)(C(=O)O)CC[C@]5(C)CC[C@@]4(C)[C@]3(C)CC[C@@H]12 [glycyrrhizin, Glycyrrhizin] | –
21 | 51.7 ± 21.7 | -59.1 ± 18.9 | -124 ± 49.4 | 51.7 ± 21.7 | -59.1 ± 18.9 | -124 ± 49.4 | COc1ccc(C2CC(=O)c3c(O)cc(O)cc3O2)cc1O (centres unmarked) [hesperetin, Hesperetin] | inhibition at 60 min [5]: ≥ 30%
22 | 2.16 ± 2.73 | -32 ± 10.3 | -42 ± 4.25 | – | – | – | COc1ccc([C@@H]2CC(=O)c3c(O)cc(O[C@@H]4O[C@H](CO[C@@H]5O[C@@H](C)[C@H](O)[C@@H](O)[C@H]5O)[C@@H](O)[C@H](O)[C@H]4O)cc3O2)cc1O [hesperidin, Hesperidin] | –
23 | – | – | – | – | – | – | O=c1cc(-c2ccc(O)c(O)c2)oc2cc(O)c([C@@H]3O[C@H](CO)[C@@H](O)[C@H](O)[C@H]3O)c(O)c12 [homoorientin, Homoorientin] | % Inhibition (Mean ± SD) [9]: −128.53 ± 27.613%; % Inhibition (Mean ± SD) [10]: −127.21 ± 28.005%; % Inhibition (Mean ± SD) [11]: −133.17 ± 26.968%
24 | – | – | – | – | – | – | O=c1c(O[C@@H]2O[C@H](CO)[C@@H](O)[C@H](O)[C@H]2O)c(-c2ccc(O)c(O)c2)oc2cc(O)cc(O)c12 [isoquercitrin, Isoquercitrin] | % Inhibition (Mean ± SD) [9]: −8.089 ± 2.404%; % Inhibition (Mean ± SD) [10]: −19.119 ± 21.887%; % Inhibition (Mean ± SD) [11]: −71.696 ± 20.468%
25 | – | – | – | – | – | – | COc1cc(-c2oc3cc(O)cc(O)c3c(=O)c2O)ccc1O [isorhamnetin, Isorhamnetin] | inhibition at 60 min (male, Sprague-Dawley, rat): ≥ 30%; inhibition at 60 min, 8.5 µM (male, Sprague-Dawley, rat): 88.4 ± 11.6%; inhibition at 60 min, 85 µM (male, Sprague-Dawley, rat): 85.1 ± 14.7%; inhibition at 60 min, 850 µM (male, Sprague-Dawley, rat): 107 ± 8.1%
26 | – | – | – | – | – | – | O=c1cc(-c2ccc(O)cc2)oc2cc(O)c([C@@H]3O[C@H](CO)[C@@H](O)[C@H](O)[C@H]3O)c(O)c12 [isovitexin, Isovitexin] | % Inhibition (Mean ± SD) [6]: 29.821 ± 9.786%; % Inhibition (Mean ± SD) [7]: −5.528 ± 9.096%; % Inhibition (Mean ± SD) [8]: −12.377 ± 8.912%; % Inhibition (Mean ± SD) [9]: 29.821 ± 9.786%; % Inhibition (Mean ± SD) [10]: −5.528 ± 9.096%; % Inhibition (Mean ± SD) [11]: −12.377 ± 8.912%
